Test results published in patent US9394233B2, “ROS-activated compounds as selective anti-cancer therapeutics” (University of Cincinnati, priority 2012, dated 2016).
Read-outs that look alike come from different tables or passages of the source.

How the values were obtained:
HeLa cells = assay: HeLa cell viability, MTT assay; assay type: cell-based; settings: Homo sapiens, 50% reduction in percent of viable HeLa cells, read-out: IC50 against HeLa Cells
Experimental: Table 1 sets forth ROS-Activated compounds of the present invention, together with their IC50 values corresponding to a 50% reduction in the percent of viable HeLa cells in vitro as measured via MTT assay.
All synthesized compounds were purified to greater than 98% purity prior to cell testing. HeLa cell viability assays were performed using an MTT assay.
The general structure of the ROS-activated compounds disclosed herein was probed to determine how positions in the structure alter potency in aqueous media. Compounds were screened against HeLa cells to determine IC50 values. Cell viability was monitored by an MTT dye that forms a purple formazan product in viable cells that are undergoing metabolism. […] Errors reported are between two separate experiments; independent curve-fitting had r greater than 0.95).

[1] = Oxidation and ROS-dependent hydrolysis of compound 3, monitored by reverse-phase HPLC; assay type: physicochemical
Excerpt: The oxidative and ROS-activation of the instantly disclosed compounds was investigated. Water, one of the simplest nucleophile substrates, was examined under different oxidative conditions (FIG. 5). A model ROS-activated compound, compound 3, was used to explore the chemical reactivity of these agents (FIG. 5A).
Hydrolysis of compound 3 as a function of time was quantified by separation of the reaction products by reverse-phase HPLC (FIG. 5B). […] To obtain quantifiable data, time points were taken daily over one week.
Addition of the one-electron oxidant, […], led to quantitative hydrolysis of compound 3 with a half-life of 0.4±0.2 hours (FIG. 5B). The oxidation potential of Ir(IV) is 0.7 volts vs. Ag/AgCl making it an appropriate choice for oxidation of hydroquinone derivatives. In additional to oxidation, cells produce reactive oxygen species in the forms of hydroxyl radical and singlet oxygen. Copper and hydrogen peroxide can be used to produce hydroxyl radical. […] The extent of hydrolysis was dependent on the hydrogen peroxide concentration and was slow due to lack of ascorbate (data not shown). Oxidases like horseradish peroxidase reduce molecular oxygen to either hydrogen peroxide or water and at the same time oxidize a substrate with an appropriate potential. The oxidation of compound 3 was difficult to measure via HPLC since after one minute approximately half (53±13%) of compound 3 was hydrolyzed.

Drosophila = Drosophila survival after microinjection, Ercc1 RNAi knockdown versus control; settings: 0.5 μL of 10 mM injected
MA9.3 AML cells = assay: AML cytotoxicity, MTT assay on MA9.3 AML cell line; assay type: cell-based, human; settings: read-out: IC50 against MA9.3 AML cells
Excerpt: (§1) To assess the anti-cancer activity against AML, transformed cells were compared to closely related, non-transformed counterparts. In the case of AML, the generally accepted non-transformed cell of origin is the human CD34+ blood stem/progenitor cell. Assessing potency against normal blood stem cells is important since, without selective cytotoxicity, an agent will yield reduced efficacy and therapeutic potential. […] Therefore, a comparison of current agents and the ROS-activated compounds disclosed herein was carried out. (FIG. 3). Cytotoxicity was measured via MTT assay on CD34+ blood stem/progenitor cells (grey lines) and on the MA9.3 AML cell line (black lines), which was derived from the transformation of human CD34+ cells by introduction of the leukemia oncogene MLL-AF9.

[2] = system: human CD34+ blood stem/progenitor cells; assay: Cytotoxicity, MTT assay on CD34+ blood stem/progenitor cells; assay type: cell-based; settings: normal blood stem cells, read-out: IC50 against CD34+ blood stem/progenitor cells
Excerpt: as §1

NCI-60 cell panel = assay: NCI-60 cell panel, Sulforhodamine B growth inhibition; assay type: cell-based; settings: distribution of GI50 over NCI-60 panel
Experimental: (§2) Compounds 25 and 9 were evaluated for effects on the viability of the cell lines in the NCI-60 cell panel. […] Data is reported as growth inhibition GI50, rather than IC50, to reflect the change in cell counts relative to the starting number of cells.

leukemia cell lines = assay: NCI-60 Sulforhodamine B growth inhibition, leukemia cell lines; assay type: cell-based; settings: median in all leukemia cell lines tested
Experimental: as §2
(§3) Growth inhibition pattern induced by 25 and 9 based on the type of cancer was also analyzed. […] The majority of leukemia and renal cancer cell lines were above the median, indicating enhanced sensitivity to ROS-activating compounds. The current results further substantiate renal carcinoma as a potential target.

CCRF-CEM = assay: NCI-60 Sulforhodamine B growth inhibition, CCRF-CEM; assay type: cell-based; settings: Homo sapiens, ALL model line
Experimental: as §2, §3

MOLT-4 = assay: NCI-60 Sulforhodamine B growth inhibition, MOLT-4; assay type: cell-based; settings: Homo sapiens; MOLT-4, ALL model line
Experimental: as §2, §3

RPMI-8226 = assay: NCI-60 Sulforhodamine B growth inhibition, RPMI-8226; assay type: cell-based; settings: Homo sapiens; RPMI-8226, plasmacytoma and myeloma cell line
Experimental: as §2, §3

HL-60 = assay: NCI-60 Sulforhodamine B growth inhibition, HL-60; assay type: cell-based; settings: Homo sapiens; HL-60, acute promyelocytic leukemia model
Experimental: as §2, §3

[3] = system: renal and CNS cancer cell lines; assay: Sulforhodamine B viability assay, renal and CNS cancer cell lines; assay type: cell-based; settings: panels of renal and CNS cancer cell lines, errors less than 25%
392-nucleotide dsDNA = assay: Primer extension assay on 392-nucleotide dsDNA (DNA modification); assay type: biochemical; settings: dsDNA treated with agent; compound 25 followed by oxidative activation (Na2IrCl6)

Row | SMILES | IC50 (HeLa cells) | also measured
1 | CCN(CCOc1ccc(O)cc1)c1ccccc1 [Compound 3, 4-(2-(ethyl(phenyl)amino)ethoxy)phenol] | 23 µM | half-life ([1]; one-electron oxidant Na2Ir2Cl6 added, addition of one-electron oxidant Na2Ir2Cl6): 0.4 ± 0.2 h; half-life ([1]; oxidation by copper chloride-hydrogen peroxide (hydroxyl radical)): 12.1 h; half-life ([1]; phosphate buffer, no oxidant, assuming first order kinetics): 693 ± 42 h; death on Day 1 (Drosophila; Drosophila lacking Ercc1 expression (da-GAL4/UAS-Ercc1RNAi)): 60%; death on Day 1 (Drosophila; control flies with wild-type Ercc1 expression (da-GAL4/+)): 10%
2 | COc1ccc(N(C)CCOc2ccc(O)cc2)cc1 [Compound 6, 4-(2-((4-methoxyphenyl)(methyl)amino)ethoxy)phenol] | 13 µM | 
3 | CN(CCOc1ccc(O)cc1)Cc1ccccc1 [Compound 8, 4-(2-(benzyl(methyl)amino)ethoxy)phenol] | 30 µM | 
4 | COC(=O)CCCc1ccc(N(CCOc2ccc(O)cc2)CCOc2ccc(O)cc2)cc1 [Compound 27, methyl 4-(4-(bis(2-(4-hydroxyphenoxy)ethyl)amino)phenyl)butanoate] | 77 µM | 
5 | CCN(CCOc1ccccc1O)c1ccccc1 [Compound 19, 2-(2-(ethyl(phenyl)amino)ethoxy)phenol] | 77 µM | 
6 | COc1cccc2c1C(=O)c1c(O)c3c(c(O)c1C2=O)C[C@@](O)(C(=O)CO)C[C@@H]3O[C@H]1C[C@H](N)[C@H](O)[C@H](C)O1 [doxorubicin] |  | IC50 (MA9.3 AML cells; Homo sapiens): 0.086 ± 0.05 µM; IC50 ([2]; Homo sapiens): 0.076 ± 0.018 µM
7 | O=C1C=CC(=O)C=C1 [benzoquinone, reference compound] | 227 µM | 
8 | CC(=O)Oc1ccc(OCCN(CCOc2ccc(OC(C)=O)cc2)c2ccccc2)cc1 [Compound 29, (((phenylazanediyl)bis(ethane-2,1-diyl))bis(oxy))bis(4,1-phenylene) diacetate] | 12 µM | 
9 | CN(CCCSc1ccc(O)cc1)c1ccccc1 [Compound 16, 4-((3-(methyl(phenyl)amino)propyl)thio)phenol] | 44 µM | 
10 | CCN(CC(=O)Nc1ccc(O)cc1)c1ccccc1 [Compound 17, 2-(ethyl(phenyl)amino)-N-(4-hydroxyphenyl)acetamide] | 108 µM | 
11 | CCN(CCOc1ccc(N)cc1)c1ccccc1 [Compound 20, N-(2-(4-aminophenoxy)ethyl)-N-ethylaniline] | > 125 µM | 
12 | Oc1ccc(O)cc1 [Hydroquinone, reference compound] | 161 µM | 
13 | CCN(CCSc1ccc(O)cc1)c1ccccc1 [Compound 15, 4-((2-(ethyl(phenyl)amino)ethyl)thio)phenol] | 46 µM | 
14 | CC(C)N(CCOc1ccc(O)cc1)c1ccccc1 [Compound 4, 4-(2-(isopropyl(phenyl)amino)ethoxy)phenol] | 53 µM | 
15 | CCN(CCCOc1ccc(O)cc1)c1ccccc1 [Compound 10, 4-(3-(ethyl(phenyl)amino)propoxy)phenol] | 16 µM | 
16 | COc1ccc(N(CCOc2ccc(O)cc2)CCOc2ccc(O)cc2)cc1 [Compound 26, 4,4′-((((4-methoxyphenyl)azanediyl)bis(ethane-2,1-diyl))bis(oxy))diphenol] | 15 µM | 

Row | SMILES | IC50 (HeLa cells) | also measured
17 | Oc1ccc(OCCNc2ccc(Br)cc2)cc1 [Compound 7, 4-(2-((4-bromophenyl)amino)ethoxy)phenol] | 31 µM | 
18 | COc1ccc(NCCOc2ccc(O)cc2)cc1 [Compound 5, 4-(2-((4-methoxyphenyl)amino)ethoxy)phenol] | 24 µM | 
19 | CCN(CCCCOc1ccc(O)cc1)c1ccccc1 [Compound 12, 4-(4-(ethyl(phenyl)amino)butoxy)phenol] | 14 µM | 
20 | CN(CCCCOc1ccc(O)cc1)c1ccccc1 [Compound 11, 4-(4-(methyl(phenyl)amino)butoxy)phenol] | 8 µM | 
21 | CCN(CCOc1ccc(OC)cc1)c1ccccc1 [Compound 24, N-ethyl-N-(2-(4-methoxyphenoxy)ethyl)aniline] | > 125 µM | 
22 | Oc1ccc(OCCNc2ccccc2)cc1 [Compound 1, 4-(2-(phenylamino)ethoxy)phenol] | 30 µM | 
23 | CN(CCCCCOc1ccc(O)cc1)c1ccccc1 [Compound 13, 4-(5-(methyl(phenyl)amino)pentyloxy)phenol] | 9 µM | 
24 | Nc1ccn([C@@H]2O[C@H](CO)[C@@H](O)[C@@H]2O)c(=O)n1 [ara-C, cytosine arabinoside] |  | IC50 (MA9.3 AML cells): 0.92 ± 0.03 µM; IC50 [2]: 0.59 ± 0.09 µM
25 | CCN(CCOc1cccc(O)c1)c1ccccc1 [Compound 18, 3-(2-(ethyl(phenyl)amino)ethoxy)phenol] | 44 µM | 
26 | CN(CCCOc1ccc(O)cc1)c1ccccc1 [Compound 9, 4-(3-(methyl(phenyl)amino)propoxy)phenol] | 7 µM | range of GI50 values (NCI-60 cell panel): 53 fold; GI50 (leukemia cell lines): 1.9 µM; GI50 (CCRF-CEM): 0.263 µM; GI50 (MOLT-4): 2 µM; GI50 (RPMI-8226): 1.2 µM; GI50 (HL-60): 0.9 µM; IC50 (MA9.3 AML cells; Homo sapiens): 0.7 ± 0.2 µM; IC50 ([2]; Homo sapiens): 5.4 ± 0.9 µM; IC50 [3]: micromolar range
27 | CCN(CCOc1ccc(N2CCCCC2)cc1)c1ccccc1 [Compound 22, N-ethyl-N-(2-(4-(piperidin-1-yl)phenoxy)ethyl)aniline] | > 125 µM | 
28 | O=C(O)CCCc1ccc(N(CCCl)CCCl)cc1 [chlorambucil] |  | IC50 (MA9.3 AML cells; Homo sapiens): 8.7 ± 0.3 µM; IC50 ([2]; Homo sapiens): 11 ± 1 µM
29 | O=C(O)CCCc1ccc(N(CCOc2ccc(O)cc2)CCOc2ccc(O)cc2)cc1 [Compound 28, 4-(4-(bis(2-(4-hydroxyphenoxy)ethyl)amino)phenyl)butanoic acid] | 67 µM | 
30 | CN(CCOc1ccc(O)cc1)c1ccccc1 [Compound 2, 4-(2-(methyl(phenyl)amino)ethoxy)phenol] | 18 µM | 
31 | CCN(CCOc1ccc(NC(C)=O)cc1)c1ccccc1 [Compound 21, N-(4-(2-(ethyl(phenyl)amino)ethoxy)phenyl)acetamide] | 45 µM | 
32 | N.N.[Cl][Pt][Cl] [cisplatin] |  | IC50 (MA9.3 AML cells): 14 ± 0.7 µM; IC50 [2]: 15 ± 2 µM; full-length extension product yield (392-nucleotide dsDNA): no full-length extension product
